Assay results from patent US8397806B2, “Method for pre-treatment of subterranean sites adjacent to water injection wells” (E.I. du Pont de Nemours and Company, priority 2010, dated 2013).

What was measured:
[1] = Example 5: 10% acetic acid titration of amine-coated core sand (30.85 gr sand/amine mixture) in 100 ml brine #2, amine in solution by GC
Protocol: (§1) Concentration of amines, in media and water, were analyzed by gas chromatography (GC). An Agilent Model 5890 (Agilent, Wilmington, Del.), GC equipped with a […] and a split/splitless injector, a DB-FFAP column (30 meter length×0.32 millimeter (mm) […]×0.25 micrometer particle size). […] The system was calibrated using a sample of N,N-Dimethyl-1-Dodecaneamine (Aldrich). Helium was used as the carrier gas. A temperature gradient of 50 degrees Celsius (° C.) to 250° C. at 30° C. increase per minute (min) was used.
The same procedure outlined in Example 4 was repeated here to produce the sand/amine mixture. 30.85 grams (gr) of the sand/amine mixture was added to 100 ml of brine #2 (Table 3) to create the sand/amine/brine mixture.

[2] = Example 4: 10% nitric acid titration of amine-coated core sand (29.065 gr sand/amine mixture) in 100 ml brine #2, amine in solution by GC
Protocol: as §1
The procedure outlined in Example 2 was used to produce the sand/amine mixture except that 519 mg of the amine, 10 gr of Pentane. and 60.062 gr of sand from the Oa and Ob layers were used. 29.065 gr of this sand/amine mixture was added to 100 ml of brine #2 (Table 3) to create the sand/amine/brine mixture. […] The concentration of the amine in the water should have been about […] if all the amine was dissolved in brine #2. […] 0.1 ml of 10 weight percent (wt %) nitric acid in water was added to this solution, and the pH and the amine concentration were measured again.

[3] = Example 2: 1N HCl titration of amine-coated core sand (38 mg amine on 10.18 gr sand) in 100 ml brine #2, amine in solution by GC; type: physicochemical
Protocol: Helium was used as the carrier gas.
38 milligrams (mg) of N N-Dimethyl-1-Dodecanamine (hereafter referred to as “the amine”) was added to 10.210 gr of Pentane. This solution was added to 10.1845 gr of specific sand layers (Oa and Ob) obtained from the Schrader Bluff formation of the Milne Point Unit of the Alaskan North slope. The oil content of the sand was first removed using a mixture of methanol and toluene (50/50, volume/volume) as solvent washes. The solvent mixture was subsequently evaporated off the core sand to produce clean, dry, flowable core sand. This sand was mixed with the amine and pentane solution to produce a slurry. This slurry was thoroughly mixed and the pentane was evaporated off leaving the amine on the sand (hereafter referred to as sand/amine mixture). 100 ml of brine #2 (Table 3) was added to the sand/amine mixture to create the sand/amine/brine mixture. […] The fact that the amine was not detected underlined its strong binding to the sand particles. […] The data underlines the remarkable efficiency of an acid at ionizing and removing the amine from the sand.

With `CCCCCCCCCCCCN(C)C` [N-N-dimethyl-1-dodeanamine, N N-Dimethyl-1-Dodecanamine] the “ppm N-N-dimethyl-1-dodeanamine” value ([1]; sample 1, pH 8.01, +0.1 ml 10% acetic acid) was 63 ppm, the “ppm N-N-dimethyl-1-dodeanamine” value ([1]; sample 2, pH 7.41, +0.1 ml 10% acetic acid) was 107 ppm and the “ppm N-N-dimethyl-1-dodeanamine” value ([1]; sample 3, pH 7.4, +0.1 ml 10% acetic acid) was 215 ppm. The “ppm N-N-dimethyl-1-dodeanamine” value ([1]; sample 4, pH 7.37, +0.1 ml 10% acetic acid) was 497 ppm, the “ppm N-N-dimethyl-1-dodeanamine” value ([1]; sample 5, pH 7.23, +0.1 ml 10% acetic acid) was 512 ppm and the “ppm N-N-dimethyl-1-dodeanamine” value ([1]; sample 6, pH 7.12, +0.1 ml 10% acetic acid) was 969 ppm. The “ppm N-N-dimethyl-1-dodeanamine” value ([1]; sample 7, pH 6.98, +0.1 ml 10% acetic acid) was 1239 ppm, the “ppm N-N-dimethyl-1-dodeanamine” value ([1]; sample 8, pH 6.89, +0.1 ml 10% acetic acid) was 1453 ppm and the “ppm N-N-dimethyl-1-dodeanamine” value ([1]; sample 9, pH 6.75, +0.1 ml 10% acetic acid) was 1583 ppm. The “ppm N-N-dimethyl-1-dodeanamine” value ([1]; sample 10, pH 6.56, +0.1 ml 10% acetic acid) was 1579 ppm, the “ppm N-N-dimethyl-1-dodeanamine” value ([1]; sample 11, pH 6.39, +0.1 ml 10% acetic acid) was 1616 ppm and the “ppm N-N-dimethyl-1-dodeanamine” value ([1]; sample 12, pH 6.4, +0.1 ml 10% acetic acid) was 1759 ppm. The “ppm N-N-dimethyl-1-dodeanamine” value ([1]; sample 13, pH 6.02, +0.2 ml 10% acetic acid) was 1736 ppm, the “ppm N-N-dimethyl-1-dodeanamine” value ([1]; sample 14, pH 5.4, +0.2 ml 10% acetic acid) was 1718 ppm and the “ppm N-N-dimethyl-1-dodeanamine” value ([1]; sample 15, pH 5.04, +0.2 ml 10% acetic acid) was 1743 ppm. The “ppm N-N-dimethyl-1-dodeanamine” value ([1]; sample 16, pH 4.86, +0.2 ml 10% acetic acid) was 1931 ppm, the “ppm N-N-dimethyl-1-dodeanamine” value ([1]; sample 17, pH 4.73, +0.2 ml 10% acetic acid) was 1995 ppm and the “ppm N-N-dimethyl-1-dodeanamine” value ([1]; sample 18, pH 4.61, +0.2 ml 10% acetic acid) was 1913 ppm. The “ppm N-N-dimethyl-1-dodeanamine” value ([1]; sample 19, pH 4.52, +0.2 ml 10% acetic acid) was 1881 ppm, the “ppm N-N-dimethyl-1-dodeanamine” value ([1]; sample 20, pH 4.43, +0.2 ml 10% acetic acid) was 1837 ppm and the “ppm N-N-dimethyl-1-dodeanamine” value ([1]; sample 21, pH 4.36, +0.3 ml 10% acetic acid) was 1885 ppm. For the same molecule, the “ppm N-N-dimethyl-1-dodeanamine” value ([1]; sample start, pH 8.52, 0 ml 10% acetic acid) was ~67 ppm, the “pH at which complete ionization and solubilization in the water of the amine was observed” value ([1]; titration with 10 wt % acetic acid) was < 6.7 and the “ppm N-N-dimethyl-1-dodeanamine” value ([2]; sample 1, pH 8.13, +0.1 ml 10% HNO3) was 110 ppm. The “ppm N-N-dimethyl-1-dodeanamine” value ([2]; sample 2, pH 7.72, +0.1 ml 10% HNO3) was 211 ppm, the “ppm N-N-dimethyl-1-dodeanamine” value ([2]; sample 3, pH 7.42, +0.1 ml 10% HNO3) was 216 ppm and the “ppm N-N-dimethyl-1-dodeanamine” value ([2]; sample 4, pH 7.25, +0.1 ml 10% HNO3) was 235 ppm. For the same molecule, the “ppm N-N-dimethyl-1-dodeanamine” value ([2]; sample 5, pH 7.2, +0.1 ml 10% HNO3) was 540 ppm, the “ppm N-N-dimethyl-1-dodeanamine” value ([2]; sample 6, pH 7.29, +0.1 ml 10% HNO3) was 745 ppm and the “ppm N-N-dimethyl-1-dodeanamine” value ([2]; sample 7, pH 7.33, +0.1 ml 10% HNO3) was 1153 ppm. The “ppm N-N-dimethyl-1-dodeanamine” value ([2]; sample 8, pH 7.29, +0.1 ml 10% HNO3) was 1210 ppm, the “ppm N-N-dimethyl-1-dodeanamine” value ([2]; sample 9, pH 7.18, +0.1 ml 10% HNO3) was 1327 ppm and the “ppm N-N-dimethyl-1-dodeanamine” value ([2]; sample 10, pH 7.11, +0.1 ml 10% HNO3) was 1315 ppm. The “ppm N-N-dimethyl-1-dodeanamine” value ([2]; sample 11, pH 6.99, +0.1 ml 10% HNO3) was 1413 ppm, the “ppm N-N-dimethyl-1-dodeanamine” value ([2]; sample 12, pH 6.85, +0.1 ml 10% HNO3) was 1667 ppm and the “ppm N-N-dimethyl-1-dodeanamine” value ([2]; sample 13, pH 6.73, +0.1 ml 10% HNO3) was 1897 ppm. For the same molecule, the “ppm N-N-dimethyl-1-dodeanamine” value ([2]; sample 14, pH 6.64, +0.1 ml 10% HNO3) was 1853 ppm, the “ppm N-N-dimethyl-1-dodeanamine” value ([2]; sample 15, pH 6.59, +0.1 ml 10% HNO3) was 1858 ppm and the “ppm N-N-dimethyl-1-dodeanamine” value ([2]; sample 16, pH 6.28, +0.2 ml 10% HNO3) was 1788 ppm. The “ppm N-N-dimethyl-1-dodeanamine” value ([2]; sample 17, pH 5.8, +0.2 ml 10% HNO3) was 1822 ppm, the “ppm N-N-dimethyl-1-dodeanamine” value ([2]; sample 18, pH 3.46, +0.2 ml 10% HNO3) was 1975 ppm and the “ppm N-N-dimethyl-1-dodeanamine” value ([2]; sample start, pH 8.28, 0 ml 10% HNO3) was ~85 ppm. The “pH at which complete ionization and solubilization in the water of the amine was observed” value ([2]; titration with 10 wt % nitric acid) was < 6.7, the “First derivative (change in amine/change in pH)” value ([3]; sample Amine titrate 1, pH 7.37) was 63.75 and the “N-N-dimethyl-1-dodeanamine (ppm) in slim tube effluent” value (shortened to “N-N-dimethyl-1-dodeanamine (ppm)”) ([3]; sample Amine titrate 1, pH 7.37, +0.10 ml 1N HCl) was 46.41 ppm. For the same molecule, the “First derivative (change in amine/change in pH)” value ([3]; sample Amine titrate 2, pH 7.21) was 63.42, the “N-N-dimethyl-1-dodeanamine (ppm)” value ([3]; sample Amine titrate 2, pH 7.21, +0.10 ml 1N HCl) was 59.29 ppm and the “First derivative (change in amine/change in pH)” value ([3]; sample Amine titrate 3, pH 7.03) was 24.34. For the same molecule, the “N-N-dimethyl-1-dodeanamine (ppm)” value ([3]; sample Amine titrate 3, pH 7.03, +0.10 ml 1N HCl) was 67.97 ppm, the “First derivative (change in amine/change in pH)” value ([3]; sample Amine titrate 4, pH 6.59) was 160.35 and the “N-N-dimethyl-1-dodeanamine (ppm)” value ([3]; sample Amine titrate 4, pH 6.59, +0.10 ml 1N HCl) was 74.38 ppm. The “First derivative (change in amine/change in pH)” value ([3]; sample Amine titrate 5, pH 6.13) was 412.18, the “N-N-dimethyl-1-dodeanamine (ppm)” value ([3]; sample Amine titrate 5, pH 6.13, +0.10 ml 1N HCl) was 212.28 ppm and the “First derivative (change in amine/change in pH)” value ([3]; sample Amine titrate 6, pH 6.07) was 679.86. The “N-N-dimethyl-1-dodeanamine (ppm)” value ([3]; sample Amine titrate 6, pH 6.07, +0.10 ml 1N HCl) was 288.72 ppm, the “First derivative (change in amine/change in pH)” value ([3]; sample Amine titrate 7, pH 6.04) was −148.78 and the “N-N-dimethyl-1-dodeanamine (ppm)” value ([3]; sample Amine titrate 7, pH 6.04, +0.05 ml 1N HCl) was 273.47 ppm. The “First derivative (change in amine/change in pH)” value ([3]; sample Amine titrate 8, pH 5.98) was 119.35, the “N-N-dimethyl-1-dodeanamine (ppm)” value ([3]; sample Amine titrate 8, pH 5.98, +0.05 ml 1N HCl) was 275.33 ppm and the “First derivative (change in amine/change in pH)” value ([3]; sample Amine titrate 9, pH 5.79) was 65.90. For the same molecule, the “N-N-dimethyl-1-dodeanamine (ppm)” value ([3]; sample Amine titrate 9, pH 5.79, +0.05 ml 1N HCl) was 303.31 ppm, the “First derivative (change in amine/change in pH)” value ([3]; sample Amine titrate 10, pH 5.39) was 15.17 and the “N-N-dimethyl-1-dodeanamine (ppm)” value ([3]; sample Amine titrate 10, pH 5.39, +0.05 ml 1N HCl) was 314.21 ppm. For the same molecule, the “First derivative (change in amine/change in pH)” value ([3]; sample Amine titrate 11, pH 4.13) was 3.24, the “N-N-dimethyl-1-dodeanamine (ppm)” value ([3]; sample Amine titrate 11, pH 4.13, +0.05 ml 1N HCl) was 328.48 ppm and the “First derivative (change in amine/change in pH)” value ([3]; sample Amine titrate 12, pH 3.19) was 11.80. The “N-N-dimethyl-1-dodeanamine (ppm)” value ([3]; sample Amine titrate 12, pH 3.19, +0.05 ml 1N HCl) was 321.33 ppm, the “First derivative (change in amine/change in pH)” value ([3]; sample Amine titrate 13, pH 2.91) was 47.42 and the “N-N-dimethyl-1-dodeanamine (ppm)” value ([3]; sample Amine titrate 13, pH 2.91, +0.05 ml 1N HCl) was 342.88 ppm. For the same molecule, the “First derivative (change in amine/change in pH)” value ([3]; sample Amine titrate 14, pH 2.74) was −6.52, the “N-N-dimethyl-1-dodeanamine (ppm)” value ([3]; sample Amine titrate 14, pH 2.74, +0.05 ml 1N HCl) was 342.67 ppm and the “First derivative (change in amine/change in pH)” value ([3]; sample Amine titrate 15, pH 2.61) was 79.86. The “N-N-dimethyl-1-dodeanamine (ppm)” value ([3]; sample Amine titrate 15, pH 2.61, +0.05 ml 1N HCl) was 340.92 ppm, the “First derivative (change in amine/change in pH)” value ([3]; sample Amine titrate 16, pH 2.41) was 80.22 and the “N-N-dimethyl-1-dodeanamine (ppm)” value ([3]; sample Amine titrate 16, pH 2.41, +0.10 ml 1N HCl) was 369.02 ppm. For the same molecule, the “First derivative (change in amine/change in pH)” value ([3]; sample Amine titrate 17, pH 2.27) was 2.25, the “N-N-dimethyl-1-dodeanamine (ppm)” value ([3]; sample Amine titrate 17, pH 2.27, +0.10 ml 1N HCl) was 368.19 ppm and the “First derivative (change in amine/change in pH)” value ([3]; sample Amine titrate 18, pH 2.18) was 7.51. The “N-N-dimethyl-1-dodeanamine (ppm)” value ([3]; sample Amine titrate 18, pH 2.18, +0.10 ml 1N HCl) was 369.54 ppm, the “First derivative (change in amine/change in pH)” value ([3]; sample Amine titrate 19, pH 2.10) was 0.12 and the “N-N-dimethyl-1-dodeanamine (ppm)” value ([3]; sample Amine titrate 19, pH 2.10, +0.10 ml 1N HCl) was 369.47 ppm. The “N-N-dimethyl-1-dodeanamine (ppm)” value ([3]; sample Amine titrate 20, pH 2.04, +0.10 ml 1N HCl) was 369.56 ppm, the “N-N-dimethyl-1-dodeanamine (ppm)” value ([3]; sample Amine titrate st, pH 8.14, 0.00 ml 1N HCl) was 0.00 ppm and the “N-N-dimethyl-1-dodeanamine (ppm)” value ([3]; sample Amine titrate st, pH 8.14, 0.00 ml 1N HCl, listed as N N-Dimethyl-1-Dodecanamine) was < 1 ppm. The “pH at which complete ionization and solubilization of the amine in the water was observed” value ([3]; titration with 1N HCl) was < 6.0.
